This note sets out measurements from PubChem BioAssay (NCI).

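The compound was tested at five concentrations on cells cultured in 96-well plates, with a 48-hour exposure period. GI50: concentration for 50% inhibition of growth. TGI denotes the concentration required for complete inhibition of growth.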 Some results are limits rather than exact numbers.

What all share (assay): inhibition of tumour cell growth, NCI panel, 48 h
For experiment [1], the system named is SK-MEL-28 melanoma.
For experiment [2], the system named is MDA-MB-231 breast.
The subject of experiment [3] is CCRF-CEM leukemia.
The test system of experiment [4] is NCI-H460 lung.
The test system of experiment [5] is HCT-15 colon.
In experiment [6] the test system is HT29 colon.
In experiment [7] the test system is EKVX NSCLC.
The subject of experiment [8] is HCT-116 colon.
Experiment [9] concerns RXF 393 renal.
For experiment [10], the system named is HOP-62 NSCLC.

`O=[N+]([O-])c1ccc(N/N=C/CC(O)(C(F)(F)F)C(F)(F)F)c([N+](=O)[O-])c1`: the TGI is greater than 10 µM in experiment [1]; greater than 10 µM in experiment [2]; greater than 10 µM in experiment [3]; 8.35 µM in experiment [4]; greater than 10 µM in [5]; greater than 10 µM in experiment [6]. The TGI in [7], in experiment [8], in experiment [9] and in experiment [10] was greater than 10 µM in each case.
For the compound `C=C1c2nc3ccccc3n2C=C(c2ccc(C)cc2)N1c1ccc(C)cc1`, the TGI in experiment [1] is greater than 100 µM; in experiment [2] it was greater than 100 µM; in [3], greater than 100 µM; in experiment [4] it was greater than 100 µM; in [5], greater than 80.6 µM; in experiment [6], greater than 100 µM. In addition, the TGI in [7] was greater than 100 µM; in [8], greater than 100 µM; in [9], greater than 96.6 µM; in experiment [10], greater than 100 µM.
For `CCCC(O)c1cn(C(NC(=O)c2ccccc2)P(=O)(OCC)OCC)nn1` (stereo not drawn), the TGI in experiment [1], in experiment [2], in [3], in experiment [4], in experiment [5] and in experiment [6] was greater than 100 µM throughout. Besides, the TGI in experiment [7], in experiment [8], in [9] and in experiment [10] was greater than 100 µM in each case.
With `C=CC(OC(C)=O)c1ccc(OC(=O)C(C)C)c(OC)c1` (stereo not drawn), the TGI is 28.8 µM in experiment [1]; 18.4 µM in experiment [2]; 5.03 µM in experiment [3]; greater than 57.6 µM in [4]; 20 µM in experiment [5]; 6.09 µM in experiment [6]. Further, the TGI in experiment [7] worked out at 16.6 µM; in experiment [8], 22.5 µM; in experiment [9] it was 14.4 µM; in [10], 28.4 µM.
On to `O=C(NC1CCCCC1)c1cc2ccccc2cc1O`, for which the TGI in experiment [1] is greater than 100 µM; in experiment [2], greater than 100 µM; in experiment [3], greater than 100 µM; in [4] it was 62.8 µM; in experiment [5] it was 65.1 µM; in [6] it was 37 µM. The TGI in [7] is greater than 100 µM; in [8], 47.6 µM; in experiment [9], 58.5 µM; in experiment [10] it was greater than 100 µM.
Consider `O=c1oc2ccc([N+](=O)[O-])cc2c(Nc2ccc3c(c2)Sc2ccccc2O3)c1[N+](=O)[O-]`, for which the TGI was 69.2 µM in [1]; 38.8 µM in experiment [2]; 50.4 µM in [3]; 57.8 µM in experiment [4]; 35 µM in [5]; 74.3 µM in experiment [6]. The TGI in experiment [7] is 68.8 µM; in experiment [8], 30.5 µM; in experiment [9], 40.2 µM; in experiment [10], 44.7 µM.
Turning to `COC(=O)/C=C\C(C#N)(C#N)N=Cc1ccccc1`, the TGI in experiment [1] amounted to 14.3 µM; in experiment [2] it was 30.9 µM; in [3] it was 2.4 µM; in [4] it was 39.5 µM; in experiment [5], 8.79 µM; in experiment [6], 19.4 µM. Further, the TGI is 27.3 µM in experiment [7], 3.4 µM in experiment [8], 4.28 µM in [9] and 34 µM in experiment [10].
As for `CSc1c(C#N)c(N)nc2c(N=Nc3ccc(Br)cc3)c(N)nn12`, the TGI is 30.8 µM in experiment [1]; 15.9 µM in [2]; 10.2 µM in [3]; greater than 49.1 µM in experiment [4]; 12 µM in experiment [5]; 29 µM in [6]. The TGI came to 23.9 µM in [7], 12.5 µM in experiment [8], 21 µM in experiment [9] and 32.3 µM in experiment [10].
On to `CCO[C@@]1(COCc2ccccc2)OC(=O)C[C@@H]1N1C(=O)OC[C@@H]1c1ccccc1`, for which the TGI in experiment [1], in experiment [2], in experiment [3], in [4], in experiment [5] and in [6] was greater than 100 µM in each case. Further, the TGI is greater than 100 µM in [7], greater than 100 µM in experiment [8], greater than 100 µM in experiment [9] and 73 µM in [10].
Consider `Cc1ccc(C(=O)N(Cc2ccccc2)Cc2ccccc2)cc1N=NN(C)C`, for which the TGI in [1] was greater than 69.7 µM; in [2] it was 78 µM; in [3], greater than 100 µM; in experiment [4], greater than 100 µM; in [5] it was greater than 90.1 µM; in experiment [6], 21.3 µM. Moreover, the TGI was greater than 100 µM in experiment [7], 30 µM in experiment [8] and 90 µM in [10].
For `COC12CCCN1c1ccn(Cc3ccccc3)c(=O)c1C2=O` (stereo not drawn), the TGI in experiment [1], in [2], in experiment [3], in experiment [4], in experiment [5] and in experiment [6] was greater than 100 µM in each case. The TGI in experiment [7], in experiment [8] and in [9] was greater than 100 µM throughout.
On to `CCCCCCCC(CC(=O)NC(CO)C(=O)NC(CO)CC(C)C)OC(=O)CC(CCCCCCC)OC(=O)CC(CCCCCCC)OC1OC(C)C(O)C(OC2OC(C)C(O)C(O)C2OC(C)=O)C1O` (stereo not drawn), for which the TGI in [1] was 21.6 µM; in experiment [2], 21.5 µM; in [3], 11.8 µM; in experiment [4] it was 15.4 µM; in experiment [6], 13.7 µM; in experiment [7], 27.9 µM. Further, the TGI in [8] was found to be 15.1 µM; in [9], 9.29 µM; in experiment [10], 27.1 µM.
With `CCCCCCNC(=O)CCC(NC(=O)c1ccc(N(C)Cc2cnc3nc(N)nc(N)c3n2)cc1)C(=O)NCCCCCC` (stereo not drawn), the TGI in experiment [1], in [2], in experiment [3], in experiment [4], in [5] and in experiment [6] was greater than 100 µM each time. The TGI in experiment [7], in [8], in experiment [9] and in [10] was greater than 100 µM each time.
As to `NNc1nncc2[nH]cnc12`, the TGI in [1], in experiment [2], in [3], in experiment [4], in [5] and in [6] was greater than 100 µM in each case. Moreover, the TGI in [7], in [8], in [9] and in experiment [10] was greater than 100 µM each time.
Consider `Nc1ccccc1.[C-]#[O+].[C-]#[O+].[C-]#[O+].[C-]#[O+].[C-]#[O+].[Cr]`, for which the GI50 in experiment [1] is 4.52 µM; in experiment [2], 5.79 µM; in [3], 2.93 µM; in [4], 5.64 µM; in [5], 4.99 µM; in [6], greater than 10 µM. For the same compound, the GI50 in [7] was 9.33 µM; in experiment [8], 2.9 µM; in experiment [9], 3.22 µM; in experiment [10] it was 4.6 µM. Moreover, the TGI in [1], in [2], in [3], in experiment [4], in [5] and in [6] was greater than 10 µM throughout. In addition, the TGI in experiment [7], in [8], in [9] and in [10] was greater than 10 µM each time.
With `CCOC(=O)c1sc2nc(SC)nc3c2c1NCN3c1ccc(F)c(F)c1`, the TGI in [1] is greater than 100 µM; in [2], 46.2 µM; in [3], greater than 100 µM; in experiment [4], greater than 100 µM; in experiment [5], greater than 100 µM; in experiment [6] it was greater than 100 µM. Besides, the TGI is greater than 100 µM in experiment [7], 54.6 µM in [8], 16.7 µM in experiment [9] and 34.1 µM in [10].
As for `CCOC(=O)c1c(Br)c(-c2ccc(OC)cc2)c(Br)n1C`, the TGI in experiment [1] was greater than 100 µM; in experiment [2], greater than 100 µM; in [3], 40.2 µM; in experiment [4] it was greater than 100 µM; in experiment [5], 64.2 µM; in [6] it was 56.3 µM. For the same compound, the TGI was 74.8 µM in experiment [7], 62.6 µM in experiment [8], 45 µM in [9] and 39.7 µM in experiment [10]. The GI50 in experiment [8] was 16 µM.
In the case of `CCOC(=O)c1nc2ccccc2nc1Oc1ccc(C(=O)OC)cc1`, the TGI in experiment [1], in experiment [2], in [3], in experiment [4], in experiment [5] and in experiment [6] was greater than 100 µM in each case. The TGI in experiment [7], in [8], in [9] and in experiment [10] was greater than 100 µM each time.
With `CC1(C)C(CCO)CC1n1cc(I)c(=O)[nH]c1=O` (stereo not drawn), the TGI in experiment [1], in [2], in [3], in experiment [5], in [7] and in experiment [8] was greater than 100 µM throughout. The TGI in experiment [9] and in [10] was greater than 100 µM each time.
Regarding `CCN(CC)C(=S)Nc1ccc(-c2cc3ccc(O)cc3oc2=O)cc1`, the TGI in [1] is greater than 100 µM; in experiment [2], greater than 100 µM; in [3], greater than 100 µM; in experiment [4], greater than 100 µM; in experiment [5] it was 67.6 µM; in [6], 30.4 µM. Moreover, the TGI in [7], in experiment [8] and in experiment [9] was greater than 100 µM each time.
Turning to `O=C(c1ccccc1)n1cc(-c2ccccc2)c2c(=O)[nH]cnc21`, the TGI in experiment [1], in [2], in [3], in experiment [5], in experiment [6] and in experiment [7] was greater than 100 µM in each case. Besides, the TGI in experiment [8], in experiment [9] and in [10] was greater than 100 µM each time.
With `O=C(CCCCCC(=O)N1CC(CCl)c2ccc([N+](=O)[O-])cc21)N1CC(CCl)c2ccc([N+](=O)[O-])cc21` (stereo not drawn), the TGI in experiment [2], in experiment [3], in experiment [4], in experiment [5], in experiment [7] and in experiment [8] was greater than 100 µM throughout. The TGI in [9] and in experiment [10] was greater than 100 µM throughout.
With `COc1cc(C2=NNC(=O)c3ccccc3N2c2nc(-c3cccs3)nc3ccc(Br)cc23)cc(OC)c1OC`, the TGI in experiment [1] is 32.3 µM; in experiment [2] it was greater than 100 µM; in experiment [3] it was greater than 100 µM; in experiment [4], 14.2 µM; in experiment [5], 24 µM; in experiment [6], 35.9 µM. The TGI is 86.4 µM in experiment [7], 26.9 µM in experiment [8] and 59.2 µM in [10].
In the case of `O=C(CCCCCCCCC(=O)N1C(=O)CC(=O)N(c2ccccc2)C1=S)N1C(=O)CC(=O)N(c2ccccc2)C1=S`, the TGI in experiment [2], in [3], in [4], in experiment [5], in [6] and in [7] was greater than 100 µM in each case. Moreover, the TGI in experiment [8], in experiment [9] and in experiment [10] was greater than 100 µM throughout.
On to `CCOC(=O)c1cc(I)c(-c2cc(C)no2)n1C`, for which the TGI in experiment [1], in experiment [2], in experiment [3], in experiment [4], in experiment [5] and in experiment [6] was greater than 100 µM in each case. The figures for the TGI in [7], in experiment [8] and in experiment [9] were greater than 100 µM, greater than 100 µM and 42.8 µM, respectively.
As to `O=C1Nc2ccccc2Cn2c1cc1oc(-c3ccccc3)cc12`, the TGI in [1] is greater than 100 µM; in [2], 87.2 µM; in [3] it was greater than 100 µM; in experiment [4], greater than 100 µM; in experiment [5] it was greater than 100 µM; in experiment [6], greater than 100 µM. Also, the TGI was greater than 100 µM in experiment [7], 53 µM in experiment [9] and 44.8 µM in experiment [10].
